How the values were obtained:
C57 mice = test: Mouse hot plate experiment; format: in vivo; settings: female C57 mice, subcutaneous, detection 15 minutes after administration, hot plate 56° C., cut-off 30 seconds
Method: Test 2: Mouse Hot Plate Experiment
18-22 g of female C57 mice were purchased from Chengdu Dashuo Experimental Animal Co., Ltd. The temperature of the hot plate instrument was set to 56° C., and after reaching 56° C., the temperature was stabilized for 30 minutes before experiment. The animals were placed in a hot plate test in order to observe the reaction of licking the hind feet, which was used as an indicator of pain response. The time from the entry of the animal to the hot plate to the heat-induced licking of the hind feet was recorded. Animals that meet the inclusion criteria (response time to lick the hind foot is less than 25s) are included in the group number. The animals were grouped by baseline threshold, with 10 in each group. Compounds of different concentrations were administered subcutaneously at 10 ml/kg, and a detection was carried out after 15 minutes of administration, with 30 seconds as the cut-off time, and the reaction time was recorded. The results were analyzed statistically, and the % MPE value was calculated according to the formula: % MPE=(Tn−T0)/(30−T0), (Tn is the time for the animal to lick the hind foot after administration, T0 is the time for the animal to lick the foot before administration) The experimental results are shown in Table 2.

human κ-opioid receptor = target: T1, human κ-opioid receptor (Homo sapiens, UniProt P41145); test: Agonist activity on human κ-opioid receptors (inhibition of forskolin-stimulated cAMP release, TR-FRET); format: cell-based; settings: OPRK1 cells (DiscoveRx)
T1 construct: host or cells: OPRK1 cells (DiscoveRx)
T1 sequence (P41145 whole entry): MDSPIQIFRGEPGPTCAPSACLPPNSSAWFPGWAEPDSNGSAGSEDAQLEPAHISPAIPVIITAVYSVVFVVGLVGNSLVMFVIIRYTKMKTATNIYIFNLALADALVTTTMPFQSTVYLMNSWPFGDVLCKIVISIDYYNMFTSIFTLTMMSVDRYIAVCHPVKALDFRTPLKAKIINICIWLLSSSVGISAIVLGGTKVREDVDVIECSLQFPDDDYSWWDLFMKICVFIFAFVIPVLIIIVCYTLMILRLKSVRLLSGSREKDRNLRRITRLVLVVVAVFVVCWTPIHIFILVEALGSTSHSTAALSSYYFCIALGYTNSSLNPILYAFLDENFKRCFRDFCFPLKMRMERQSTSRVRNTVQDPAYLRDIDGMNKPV
Text: Test 1: Agonist Activity on Human κ-Opioid Receptors
Forskolin can stimulate the release of cAMP from a human κ-opioid receptor-overexpressing cell line, OPRK1 cells (DiscoveRx), and κ-opioid receptor agonists can inhibit the cAMP release stimulated by forskolin. By detecting the inhibitory effect of the test compound on the cAMP release stimulated by forskolin, the agonistic activity of the compound on the human κ-opioid receptor can be determined. First, a certain concentration of forskolin and different concentrations of the test compound were incubated with human κ-opioid receptor overexpressing cell lines. A cAMP immunoassay (LANCE®, PerkinElmer) based on time-resolved fluorescence resonance energy transfer (TR-FRET) was used to determine cAMP levels in the stimulated OPRK1 cells. The specific method is as follows:
OPRK1 cells (DiscoveRx) that highly express human κ-opioid receptors were cultured in McCoy's 5A (Gibco 16600-082) medium containing 10% FBS (Gibco 10099-141). On the day of the experiment, the cells in the exponential growth phase were washed and separated with PBS/5 mM EDTA, collected by centrifugation, resuspended with Stimulation Buffer and counted. The concentration of cells was adjusted to 3*10^5 cells/ml. DMSO was used to dissolve Forskolin and the test compound respectively, so that the mother liquor concentration each was 10 mM, and then diluted Forskolin to […] with Stimulation Buffer, and different concentrations of the test compound (the concentrations were 80, 16, 3.2, 0.64, 0.128, 0.0256, 0.00512, 0.001024, 0 μM) was added, 5 μl per well was added to a 384-well plate. 5 μl of cell suspension was added to each well and incubated at room temperature for 30 min. Subsequently, 5 μl of 4×Eu-cAMP tracer working solution (50-fold dilution of Eu-cAMP stock solution with cAMP Detection Buffer) and 5 μl of 4×Ulight-anti-cAMP working solution (150-fold dilution of ULight-anti-cAMP stock solution with cAMP Detection Buffer) were added to each well, and incubated at room temperature for 1 hour. 384-well plates were assayed for cAMP levels using a microplate reader (Perkin Elmer, Envision) TR-FRET method. The obtained data were processed and fitted to EC50 using the origin 7.5 software. The human κ-opioid receptor agonistic activity of the compound of the present invention was measured through the above experiments, and the measured EC50 values are shown in Table 1.
Stimulation Buffer preparation method: 14 mL 1*HBSS (invitrogen, cat. #14025-092), 75 μL 1 M HEPES (Invitrogen, cat. #15630-080), 30 μL 250 mM IBMX was dissolved in DMSO (Sigma, cat. #17018) and mixed with 200 μL 7.5% BSA Stabilizer. pH of the solution was adjusted to 7.4 with 0.1 N NaOH and make up to 15 mL with 1*HBSS.

Mouse PK test = format: in vivo; settings: plasma, male ICR mice, iv, 1 mg/kg (calculated in free form)
Rat PK test = format: in vivo; settings: male SD rats, iv, 1 mg/kg (calculated in free form)

SMILES	MPE(%) (C57 mice)	EC50 (human κ-opioid receptor) [nM]	AUC(0-t) (Mouse PK test) [ng·h/mL]	half-life (Mouse PK test) [h]	Cl (Rat PK test) [ml/kgmin]	AUC(0-t) (Rat PK test; rat, plasma) [ng·h/mL]	half-life (Rat PK test; rat, plasma) [h]	Vd (Rat PK test; rat, plasma, read-out: Vdss) [L/kg]
CC(=O)N1CC2(CCN(C(=O)[C@@H](CCCCN)NC(=O)[C@@H](CC(C)C)NC(=O)[C@@H](Cc3ccccc3)NC(=O)[C@H](N)Cc3ccccc3)CC2)C1 [Compound 8, (2R)—N-[(1R)-1-(2-acetyl-2,7-diazaspiro[3.5]nonane-7-carbonyl)-5-amino-pentyl]-2-[[(2R)-2-[[(2R)-2-amino-3-phenyl-propanoyl]amino]-3-phenyl-propanoyl]amino]-4-methyl-pentanamide; di-trifluoroacetic acid]	−18.61	0.0112	1220	5.77	–	–	–	–
CC(C)C[C@@H](NC(=O)[C@@H](Cc1ccccc1)NC(=O)[C@H](N)Cc1ccccc1)C(=O)N[C@H](CCCCN)C(=O)N1CCC2(CC1)CC(N)(C(=O)O)C2 [Compound 2, 2-amino-7-[(2R)-6-amino-2-[[(2R)-2-[[(2R)-2-[[(2R)-2-amino-3-phenyl-propanoyl]amino]-3-phenyl-propanoyl]amino]-4-methyl-pentanoyl]amino]hexanoyl]-7-azaspiro[3.5]nonane-2-carboxylic acid; tri-trifluoroacetic acid]	−17.20	0.41	–	–	5.97	2660	4.22	1.47
CC(C)C[C@@H](NC(=O)[C@@H](Cc1ccccc1)NC(=O)[C@H](N)Cc1ccccc1)C(=O)N[C@H](CCCCN)C(=O)N1CC2(C1)CC1(CNC(=O)C1)C2 [Compound 4, (2R)—N-[(1R)-5-amino-1-(9-oxo-2,8-diazadispiro[3.1.4^6.1^4]undecane-2-carbonyl)pentyl]-2-[[(2R)-2-[[(2R)-2-amino-3-phenyl-propanoyl]amino]-3-phenyl-propanoyl]amino]-4-methyl-pentanamide; di-trifluoroacetic acid]	−19.62	0.0159	–	–	–	–	–	–
CNC(=O)N1CC2(CCN(C(=O)[C@@H](CCCCN)NC(=O)[C@@H](CC(C)C)NC(=O)[C@@H](Cc3ccccc3)NC(=O)[C@H](N)Cc3ccccc3)CC2)C1 [Compound 15, 7-[(2R)-6-amino-2-[[(2R)-2-[[(2R)-2-[[(2R)-2-amino-3-phenyl-propanoyl]amino]-3-phenyl-propanoyl]amino]-4-methyl-pentanoyl]amino]hexanoyl]-N-methyl-2,7-diazaspiro[3.5]nonane-2-carboxamide; di-trifluoroacetic acid]	−13.29	0.0117	–	–	–	–	–	–

Reference: patent US11014964B2, “Peptide amide compound and preparation method and medical use thereof” (Sichuan Haisco Pharmaceutical Co., Ltd., priority 2017, dated 2021)
